Our source for the IC50 values is patent publication US20240246908A1 (ORION CORPORATION, priority 2021, published 2024).

SMILES strings stand for the structures.

This experiment relates to YAP-TEAD. Put plainly: TEAD inhibition, Hippo Pathway TEAD Reporter MCF-7 luciferase assay. To be noted: Homo sapiens, MCF7, 24 h, Hippo Pathway TEAD Reporter MCF-7 cells, luciferase activity after 24 h; read-out: IC50 of the test compounds on YAP-TEAD inhibition (Group). In kind it is cell-based. The method in brief: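 MCF-7 cells carrying a TEAD-responsive firefly luciferase reporter, with nuclear YAP1 driving constitutive expression, were treated the day after plating with compounds (11 concentrations, 4 replicates; 0.1% DMSO control). After 24 h, luciferase was read by ONE-Glo luminescence and IC50 determined.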
As usually defined, the IC50 is the concentration that inhibits the measured activity by half. With `COc1ccc(Oc2ccc(C(F)(F)F)cc2F)cc1NC(=O)[C@@H]1CCC(=O)N1C` [Compound 398, (S)—N-(5-(2-Fluoro-4-(trifluoromethyl)phenoxy)-2-methoxyphenyl)-1-methyl-5-oxopyrrolidine-2-carboxamide], the IC50 was less than 50 nM. For `COc1ccc(Oc2cnc(C(F)(F)F)c(F)c2)cc1NC(=O)C1CCC(=O)N1C` (centres unmarked) [Compound 399], the IC50 is less than 50 nM.

For `COc1ccc(Oc2ccc(C(F)(F)F)c(F)n2)cc1NC(=O)C1CCC(=O)N1C` (centres unmarked) [Compound 400, N-(5-((6-Fluoro-5-(trifluoromethyl)pyridin-2-yl)oxy)-2-methoxyphenyl)-1-methyl-5-oxopyrrolidine-2-carboxamide], the IC50 was less than 50 nM. For the molecule `COc1ccc(Oc2ccc(C(F)(F)F)c(F)n2)cc1NC(=O)[C@@H]1CCC(=O)N1C` [Compound 401, (S)—N-(5-((6-Fluoro-5-(trifluoromethyl)pyridin-2-yl)oxy)-2-methoxyphenyl)-1-methyl-5-oxopyrrolidine-2-carboxamide], the IC50 was less than 50 nM.

Regarding `COc1ccc(Oc2ccc(C(F)(F)F)c(F)n2)cc1NC(=O)[C@H]1CCC(=O)N1C` [Compound 402, (R)—N-(5-((6-Fluoro-5-(trifluoromethyl)pyridin-2-yl)oxy)-2-methoxyphenyl)-1-methyl-5-oxopyrrolidine-2-carboxamide], the IC50 is less than 50 nM. As for `COc1ccc(Oc2ccc(C(F)(F)F)cn2)cc1NC(=O)[C@@H]1CCC(=O)N1C` [Compound 403, (S)—N-(2-Methoxy-5-((5-(trifluoromethyl)pyridin-2-yl)oxy)phenyl)-1-methyl-5-oxopyrrolidine-2-carboxamide], the figure is less than 50 nM.

Regarding `COc1ccc(/C=C/C2CCC(F)(F)CC2)cc1NC(=O)C1CNC(=O)N1` (centres unmarked) [Compound 404, (E)-N-(5-(2-(4,4-Difluorocyclohexyl)vinyl)-2-methoxyphenyl)-2-oxo-imidazolidine-4-carboxamide], the IC50 lay in the range of 50 to 300 nM.

As for `CN1C(=O)CC[C@@H]1C(=O)Nc1cc(/C=C/C2CCC(F)(F)CC2)cc2c1OCC2` [Compound 405, (R,E)-N-(5-(2-(4,4-Difluorocyclohexyl)vinyl)-2,3-dihydrobenzofuran-7-yl)-1-methyl-5-oxopyrrolidine-2-carboxamide], the IC50 was less than 50 nM. As for `CN1C(=O)CC[C@H]1C(=O)Nc1cc(/C=C/C2CCC(F)(F)CC2)cc2c1OCC2` [Compound 406, (S,E)-N-(5-(2-(4,4-Difluorocyclohexyl)vinyl)-2,3-dihydrobenzofuran-7-yl)-1-methyl-5-oxopyrrolidine-2-carboxamide], the IC50 was less than 50 nM. As to `CN1C(=O)NC[C@H]1C(=O)Nc1cc(/C=C/C2CCC(F)(F)CC2)cc2c1OCC2` [Compound 407, (S,E)-N-(5-(2-(4,4-Difluorocyclohexyl)vinyl)-2,3-dihydrobenzofuran-7-yl)-3-methyl-2-oxoimidazolidine-4-carboxamide], the half-inhibitory concentration (IC50) was less than 50 nM. Regarding `COc1ccc(/C=C/C2CCC(F)(F)CC2)cc1NC(=O)C1CN(C)C(=O)N1C` (centres unmarked) [Compound 408, (E)-N-(5-(2-(4,4-Difluorocyclohexyl)vinyl)-2-methoxyphenyl)-1,3-dimethyl-2-oxoimidazolidine-4-carboxamide], the IC50 was 50 to 300 nM. To `CN1C(=O)NC[C@H]1C(=O)Nc1cc(/C=C/C2CCC(F)(F)CC2)cc2c1OCO2` [Compound 409] belongs less than 50 nM; to `COc1cc(Oc2ccc(O)c(NC(=O)C3CCC(=O)N3C)c2)ccc1C(F)(F)F` (centres unmarked) [Compound 410, N-(2-Hydroxy-5-(3-methoxy-4-(trifluoromethyl)phenoxy)phenyl)-1-methyl-5-oxopyrrolidine-2-carboxamide], 301 to 2000 nM. In the case of `COc1ccc(Oc2ccc(C(F)(F)F)cc2O)cc1NC(=O)C1CCC(=O)N1C` (centres unmarked) [Compound 411, N-(5-(2-Hydroxy-4-(trifluoromethyl)phenoxy)-2-methoxyphenyl)-1-methyl-5-oxopyrrolidine-2-carboxamide], the IC50 fell in the range of 301 to 2000 nM. As for `COc1ccc(Oc2ccc(C(F)(F)F)cc2)cc1NC(=O)C1CCN(C(C)=O)C1` (centres unmarked) [Compound 412, 1-Acetyl-N-(2-methoxy-5-(4-(trifluoromethyl)phenoxy)phenyl)-pyrrolidine-3-carboxamide], the IC50 lay within 301 to 2000 nM.

In the case of `COc1ccc(Oc2cccc(F)c2)cc1NC(=O)C1CCN(C(C)=O)C1` (centres unmarked) [Compound 413, 1-Acetyl-N-(5-(3-fluorophenoxy)-2-methoxyphenyl)pyrrolidine-3-carboxamide], the IC50 was in the range of 301 to 2000 nM. Take `COc1ccc(Oc2ccc(C(F)(F)F)cc2)cc1N(C)C(=O)[C@@H]1CCC(=O)N1C` [Compound 417, (S)—N-(2-Methoxy-5-(4-(trifluoromethyl)phenoxy)phenyl)-N,1-dimethyl-5-oxopyrrolidine-2-carboxamide]: the IC50 was 50 to 300 nM.
